# Data reported in patent US9187430B2, “Poly (ADP-ribose) polymerase inhibitor” (CHENGDU DI'AO PHARMACEUTICAL GROUP CO., LTD., priority 2011, dated 2015).
# System: rat model of focal cerebral ischemia
# Assay: not given
# Conditions: i.p. 10 mg/kg two hours prior to and two hours after the initiation of ischemia; cited from earlier work
row,Structure (SMILES),reduction in infarct volume
1,"O=C1NCCc2c(OCCCCN3CCCCC3)cccc21 [DPQ, 3,4-dihydro-5-[4-(1-piperidinyl)butoxy]-1(2H)-isoquinolinone]",54%

# System: occlusion of the MCA in mice
# Assay: not given
# Conditions: intracerebroventricular administration; cited from earlier work
row,Structure (SMILES),decrease in infarct volume
1,"NC(=O)c1cccc(N)c1 [Compound 3-AB, 3-aminobenzamide]",47%

# System: not listed separately
# Assay: Solubility test (thermodynamic solubility, HPLC external standard)
# Type: physicochemical
# Conditions: aqueous buffer, thermodynamic from solid; pH=7.4 phosphate buffer, 25° C., shaken 24 hours; read-out: Water Solubility (PH = 7.4)
# Description: In this test, excess amount of test sample was added into pH=7.4 phosphate buffer. Ultrasonic was performed for 30 min until the drug no longer dissolved. The solution was continuously shaked for 24 hours at a constant temperature of 25° C. to achieve a thermodynamic equilibrium of compound, and then the solution was filtrated to get filtrate. Quantitative analysis of compound in filtrate using external standard method is performed according to “Appendix VD High Performance Liquid Chromatography, Part II of Pharmacopeia 2010,” and the sample thermodynamic solubility in pH=7.4 phosphate buffered solution was determined.
# Agilent 1200 LC, Phenomen C18 column (4.6 mm*150 mm, […]), mobile phase: methanol:water (60:40), flow rate: 1 mL/min, column temperature: 25° C., wave length: 230 nm, injection volume: 10 μL
# About 30 mg test compound was put in a 10 mL volumetric flask, about 8 mL pH=7.4 phosphate buffer was added and ultrasonic was performed for 30 min, and the solution was shaked for 24 hours in a shaker at a constant temperature of 25° C. The solution was settled for half an hour under 25° C., filtered with […] hydrophilic filter. The filtrate was used as test sample.
# Standard compound AZD-2281 was put in a volumetric flask and dissolved in the mobile phase. The solutions were injected to measure the peak area. The retention time of AZD-2281 was about 8.5 min. The peak area was regressed against concentration to get a regression equation y=29.66x+302.82 (r=0.9997), and the linear range is 52.45˜83.92 µg/mL (see FIG. 1).
# The test solution was injected for three times according to the above chromatographic conditions. The peak area was measured to calculate the corresponding concentration.
# The procedures for testing the solubility of other compounds were similar with compound AZD-2281.
row,solubility at 24 h,Structure (SMILES)
1,602 µg/mL,"CC(C)(C)C(=O)N1CCN(C(=O)c2cc(Oc3n[nH]c(=O)c4ccccc34)ccc2F)CC1 [Compound 55, 4-(4-fluoro-3-(4-pivaloylpiperazine-1-carbonyl)phenoxy)-2H-phthalazin-1-one]"
2,650 µg/mL,"CC(C)N1CCN(C(=O)c2cc(Oc3n[nH]c(=O)c4ccccc34)ccc2F)CC1 [Compound 79, 4-(4-fluoro-3-(4-isopropyl-1-carbonyl)phenoxy)-2H-phthalazin-1-one]"
3,660 µg/mL,"CCC(=O)N1CCN(C(=O)c2cc(Oc3n[nH]c(=O)c4ccccc34)ccc2F)CC1 [Compound 100, 4-(4-fluoro-3-(4-propionylpiperazine-1-carbonyl)phenoxy)2H-phthalazin-1-one]"
4,1440 µg/mL,"CN(C)C1(C(=O)N2CCN(C(=O)c3cc(Oc4n[nH]c(=O)c5ccccc45)ccc3F)CC2)CC1 [Compound 124, 4-(3-(4-(1-(dimethylamino)cyclopropanecarbonyl)piperazine-1-carbonyl)-4-fluorophenoxy)2H-phthalazin-1-one]"
5,671 µg/mL,"NC1(C(=O)N2CCN(C(=O)c3cc(Oc4n[nH]c(=O)c5ccccc45)ccc3F)CC2)CC1 [Compound 125, 4-(3-(4-(1-aminocyclopropanecarbonyl)piperazine-1-carbonyl)-4-fluorophenoxy)2H-phthalazin-1-one]"
6,630 µg/mL,"CNC1(C(=O)N2CCN(C(=O)c3cc(Oc4n[nH]c(=O)c5ccccc45)ccc3F)CC2)CCC1 [Compound 127, 4-(4-fluoro-3-(4-(1-(methylamino)cyclobutanecarbonyl)piperazine-1-carbonyl)phenoxy)2H-phthalazin-1-one]"

row,Structure (SMILES),solubility at 24 h
1,"O=C(c1cc(Cc2n[nH]c(=O)c3ccccc23)ccc1F)N1CCN(C(=O)C2CC2)CC1 [AZD-2281, reference compound]",531 µg/mL

# System: triple-negative phenotypic breast cancer cell line MDA-MB-436
# Assay: Cell proliferation inhibition assay (SRB method)
# Type: cell-based
# Conditions: Homo sapiens, 144 h; BRCA-deficient MDA-MB-436, six days, compound alone
# Text: Cell Proliferation Inhibition Assay
# This assay was used to study the effect of PARP-1 inhibitor alone for tumor suppression. Breast cancer susceptibility genes BRCA1 and BRCA2 play an important role in homologous recombination DNA repair. BRCA-deficient cells represent homologous recombination repair defect, if PARP-mediated DNA repair is inhibited at the same time, DNA damage in cells may be increased, resulting in chromatin abnormality or even cell death.
# BRCA-deficient breast cancer cell line MDA-MB-436 was selected for the assay, PARP inhibitor was used alone to evaluate its damage effect on cells. The inhibition effect of the compound was expressed by IC50.
# Breast cancer cell line MDA-MB-436 in good growth condition seeded in 96-well plates (5000 cells/well or 3000 cells/well, respectively), and cultured overnight in an incubator at 37° C., 5% CO2 with saturated humidity. On the next day, samples with a series of concentration gradients were added and cultured for another six days. SRB method was used to detect the samples' inhibition on cell growth and calculate their growth inhibition rate.
row,IC50,Structure (SMILES)
1,4.21 µM,"C[C@@H](C(=O)N1CCN(C(=O)c2cc(Oc3n[nH]c(=O)c4ccccc34)ccc2F)CC1)c1ccccc1 [Compound 49, (R)-4-(4-fluoro-3-(4-(2-phenylpropionyl)piperazine-1-carbonyl)phenoxy)-2H-phthalazin-1-one]"
2,1.98 µM,"CCC(CC)C(=O)N1CCN(C(=O)c2cc(Oc3n[nH]c(=O)c4ccccc34)ccc2F)CC1 [Compound 61, 4-(3-(4-(2-ethylbutyryl)piperazine-1-carbonyl)-4-fluorophenoxy)-2H-phthalazin-1-one]"
3,3.35 µM,"O=C(c1cc(Oc2n[nH]c(=O)c3ccccc23)ccc1F)N1CCN(C(=O)N2CCCCC2)CC1 [Compound 85, 4-(4-fluoro-3-(4-(piperidine-1-carbonyl)piperazine-1-carbonyl)phenoxy)-2H-phthalazin-1-one]"
4,3.28 µM,"O=C(c1cc(Oc2n[nH]c(=O)c3ccccc23)ccc1F)N1CCN(C(=O)c2ccccc2[N+](=O)[O-])CC1 [Compound 88, 4-(4-fluoro-3-(4-(2-nitrobenzoyl)piperazine-1-carbonyl)phenoxy)-2H-phthalazin-1-one]"
5,2.63 µM,O=C(c1cc(Oc2n[nH]c(=O)c3ccccc23)ccc1F)N1CCN(C(=O)C2CCCCC2)CC1 [Compound 99]
6,4.12 µM,"CCC(=O)N1CCN(C(=O)c2cc(Oc3n[nH]c(=O)c4ccccc34)ccc2F)CC1 [Compound 100, 4-(4-fluoro-3-(4-propionylpiperazine-1-carbonyl)phenoxy)2H-phthalazin-1-one]"
7,3.17 µM,"O=C(c1cc(Oc2n[nH]c(=O)c3ccccc23)ccc1F)N1CCN(C(=O)C2CCC(F)(F)CC2)CC1 [Compound 107, 4-(3-(4-(4,4-difluorocyclohexanecarbonyl)piperazine-1-carbonyl)-4-fluorophenoxy)2H-phthalazin-1-one]"
8,3.7 µM,"CN(C)C1(C(=O)N2CCN(C(=O)c3cc(Oc4n[nH]c(=O)c5ccccc45)ccc3F)CC2)CC1 [Compound 124, 4-(3-(4-(1-(dimethylamino)cyclopropanecarbonyl)piperazine-1-carbonyl)-4-fluorophenoxy)2H-phthalazin-1-one]"
9,3.85 µM,"C[C@]1(C(=O)N2CCN(C(=O)c3cc(Oc4n[nH]c(=O)c5ccccc45)ccc3F)CC2)CCCN1 [Compound 130, (R)-4-(4-fluoro-3-(4-(2-methylpyrrolidine-2-carbonyl)piperazine-1-carbonyl)phenoxy)-2H-phthalazin-1-one]"

row,Structure (SMILES),IC50
1,"O=C(c1cc(Cc2n[nH]c(=O)c3ccccc23)ccc1F)N1CCN(C(=O)C2CC2)CC1 [AZD-2281, reference compound]",4.38 µM
